According to PMC12136037, “Type II kinase inhibitors that target Parkinson’s disease–associated LRRK2” (Science Advances, 2025):
Where “and” joins values, the source holds several entries; their conditions need not be identical. Equal values may be shown once. Entries after “also recorded” stand apart in the source; their conditions may differ.

Experiments:
LRRK1 = LRRK1 (Homo sapiens, UniProt Q38SD2); assay: Western blot of Rab7 phosphorylation (pS72) in 293T cells transfected with LRRK1 and GFP-Rab7; format: cell-based; conditions: for pRab7/Rab7/LRRK1 normalized to DMSO, Mean / pRab7/Rab7/LRRK1 normalized to DMSO: 4 h; for pRab7/Rab7/LRRK1 normalized to DMSO, Mean: 3 replicates; for pRab7/Rab7/LRRK1 normalized to DMSO: individual Western blots
Protocol: (§1) For all in cell kinase assays, after 48 hours, transfected cells were treated with either DMSO (control) or the indicated inhibitors for 4 hours at 37°C and 5% CO2. Following treatments, cells were washed three times with ice cold PBS. Cells were then lysed in ice cold radioimmunoprecipitation assay (RIPA) lysis buffer [50 mM tris (pH 8.0), 150 mM NaCl, 1% Triton X-100, 0.1% SDS, 0.5% sodium deoxycholate, and 1 mM DTT] in the presence of complete mini EASYpack protease inhibitor cocktail and the PhosSTOP EASYpack phosphatase inhibitor cocktail (Roche). Resuspended and lysed cells were clarified by centrifugation at 13,000g for 15 min at 4°C. NuPAGE LDS Sample Buffer (1×) and NuPAGE Sample Reducing Agent (1×; Invitrogen) were added to the clarified supernatants, and the samples were boiled at 95°C for 5 min and spun down at 13,000g for 10 min. For Western blotting, 15 μl of sample was loaded into a NuPAGE 4 to 12% gradient bis-tris gel (Invitrogen) and run at 120 V for 75 min before transfer to polyvinylidene difluoride transfer membrane (0.45-μm pore size, Millipore) for 240 min at 80 V at 4°C. The membrane was blocked in 5% milk in 1× Tris-buffered saline (TBS) [20 mM tris (pH 8.0) and 150 mM NaCl] for 1 hour shaking at room temperature. Primary antibodies [monoclonal rabbit anti-LRRK2 (Abcam, ab133474; RRID: AB_2713963), polyclonal rabbit anti-LRRK1 (Abcam, ab228666), monoclonal rabbit anti-LRRK2 phospho-S935 (Abcam, ab133450; RRID: AB_2732035), monoclonal rabbit anti-Rab8a phospho-T72 (Abcam, ab230260; RRID: AB_2814988), monoclonal rabbit anti-Rab7 phospho-S72 (Abcam, ab302494; RRID: AB_2933985), monoclonal rabbit anti–glyceraldehyde-3-phosphate dehydrogenase (GAPDH; Cell Signalling Technology, 2118; RRID: AB_561053), and monoclonal mouse anti-GFP (Santa Cruz Biotechnology, sc-9996; RRID: AB_627695)] were diluted in 5% milk in TBS and incubated with membrane for 16 hours at 4°C. Following incubation, membranes were washed three times with 1× TBS-T [20 mM tris (pH 8.0), 150 mM NaCl, and 0.1% Tween 20] before incubation with IRDye 680RD goat anti-rabbit IgG (LI-COR, 926-68071; RRID: AB_10956166) and IRDye 800CW goat anti-mouse IgG (LI-COR, 926-32210; RRID: AB_621842) secondary antibodies in 5% milk in 1× TBS for 1 hour at room temperature. Membranes were then washed three times in 1× TBS-T before imaging on Li-COR Odyssey CLx controlled by Imaging Studio software (www.licorbio.com/image-studio, RRID:SCR_015795). Image processing and quantification were performed in ImageJ version 2.14.0 (National Institutes of Health; https://imagej.net/, RRID:SCR_003070). The signal intensity of each band was assessed using the Analyze>Gels tool. The band intensity for phosphorylated LRRK2 was measured and compared to total LRRK2 levels (run under identical conditions on a separate gel). Band intensity for phosphorylated Rab7 or Rab8a was measured and compared against total GFP-Rab7 or GFP-Rab8a (using anti-GFP antibody) and LRRK1/LRRK2 levels as appropriate. Comparative statistical analysis of phosphorylation levels was analyzed using a one-way analysis of variance (ANOVA) and corrected using Tukey’s multiple comparisons test in GraphPad Prism 10 (www.graphpad.com/, RRID:SCR_002798). (For current step-by-step protocol for LRRK transfection and Western blotting, see dx.doi.org/10.17504/protocols.io.kxygx9bozg8j/v1.)

[1] = tested on: LRRK2 S935 phosphorylation; assay: Western blot of LRRK2 biomarker site pS935 in transfected 293T cells; format: cell-based, human; conditions: for pS935 LRRK2/LRRK2 normalized to DMSO, Mean / pS935 LRRK2/LRRK2 normalized to DMSO: 4 h; for pS935 LRRK2/LRRK2 normalized to DMSO, Mean: 3 replicates; for pS935 LRRK2/LRRK2 normalized to DMSO: individual Western blots, listed as 277
Protocol: as §1

LRRK2 = molecular target: T1, LRRK2 (Homo sapiens, UniProt Q5S007); assay: Western blot of Rab8a phosphorylation (pT72) in 293T cells transfected with wild-type LRRK2 and GFP-Rab8a; format: cell-based
T1 construct: wild-type full-length LRRK2 (pcDNA5-LRRK2, RRID: Addgene_229019)
Protocol: For all in cell kinase assays, after 48 hours, transfected cells were treated with either DMSO (control) or the indicated inhibitors for 4 hours at 37°C and 5% CO2. Following treatments, cells were washed three times with ice cold PBS. Cells were then lysed in ice cold radioimmunoprecipitation assay (RIPA) lysis buffer [50 mM tris (pH 8.0), 150 mM NaCl, 1% Triton X-100, 0.1% SDS, 0.5% sodium deoxycholate, and 1 mM DTT] in the presence of complete mini EASYpack protease inhibitor cocktail and the PhosSTOP EASYpack phosphatase inhibitor cocktail (Roche). Resuspended and lysed cells were clarified by centrifugation at 13,000g for 15 min at 4°C. […] The membrane was blocked in 5% milk in 1× Tris-buffered saline (TBS) [20 mM tris (pH 8.0) and 150 mM NaCl] for 1 hour shaking at room temperature. […] Membranes were then washed three times in 1× TBS-T before imaging on Li-COR Odyssey CLx controlled by Imaging Studio software (www.licorbio.com/image-studio, RRID:SCR_015795). […] The signal intensity of each band was assessed using the Analyze>Gels tool. The band intensity for phosphorylated LRRK2 was measured and compared to total LRRK2 levels (run under identical conditions on a separate gel). Band intensity for phosphorylated Rab7 or Rab8a was measured and compared against total GFP-Rab7 or GFP-Rab8a (using anti-GFP antibody) and LRRK1/LRRK2 levels as appropriate. Comparative statistical analysis of phosphorylation levels was analyzed using a one-way analysis of variance (ANOVA) and corrected using Tukey’s multiple comparisons test in GraphPad Prism 10 (www.graphpad.com/, RRID:SCR_002798).

T1 sequence (Q5S007 whole entry): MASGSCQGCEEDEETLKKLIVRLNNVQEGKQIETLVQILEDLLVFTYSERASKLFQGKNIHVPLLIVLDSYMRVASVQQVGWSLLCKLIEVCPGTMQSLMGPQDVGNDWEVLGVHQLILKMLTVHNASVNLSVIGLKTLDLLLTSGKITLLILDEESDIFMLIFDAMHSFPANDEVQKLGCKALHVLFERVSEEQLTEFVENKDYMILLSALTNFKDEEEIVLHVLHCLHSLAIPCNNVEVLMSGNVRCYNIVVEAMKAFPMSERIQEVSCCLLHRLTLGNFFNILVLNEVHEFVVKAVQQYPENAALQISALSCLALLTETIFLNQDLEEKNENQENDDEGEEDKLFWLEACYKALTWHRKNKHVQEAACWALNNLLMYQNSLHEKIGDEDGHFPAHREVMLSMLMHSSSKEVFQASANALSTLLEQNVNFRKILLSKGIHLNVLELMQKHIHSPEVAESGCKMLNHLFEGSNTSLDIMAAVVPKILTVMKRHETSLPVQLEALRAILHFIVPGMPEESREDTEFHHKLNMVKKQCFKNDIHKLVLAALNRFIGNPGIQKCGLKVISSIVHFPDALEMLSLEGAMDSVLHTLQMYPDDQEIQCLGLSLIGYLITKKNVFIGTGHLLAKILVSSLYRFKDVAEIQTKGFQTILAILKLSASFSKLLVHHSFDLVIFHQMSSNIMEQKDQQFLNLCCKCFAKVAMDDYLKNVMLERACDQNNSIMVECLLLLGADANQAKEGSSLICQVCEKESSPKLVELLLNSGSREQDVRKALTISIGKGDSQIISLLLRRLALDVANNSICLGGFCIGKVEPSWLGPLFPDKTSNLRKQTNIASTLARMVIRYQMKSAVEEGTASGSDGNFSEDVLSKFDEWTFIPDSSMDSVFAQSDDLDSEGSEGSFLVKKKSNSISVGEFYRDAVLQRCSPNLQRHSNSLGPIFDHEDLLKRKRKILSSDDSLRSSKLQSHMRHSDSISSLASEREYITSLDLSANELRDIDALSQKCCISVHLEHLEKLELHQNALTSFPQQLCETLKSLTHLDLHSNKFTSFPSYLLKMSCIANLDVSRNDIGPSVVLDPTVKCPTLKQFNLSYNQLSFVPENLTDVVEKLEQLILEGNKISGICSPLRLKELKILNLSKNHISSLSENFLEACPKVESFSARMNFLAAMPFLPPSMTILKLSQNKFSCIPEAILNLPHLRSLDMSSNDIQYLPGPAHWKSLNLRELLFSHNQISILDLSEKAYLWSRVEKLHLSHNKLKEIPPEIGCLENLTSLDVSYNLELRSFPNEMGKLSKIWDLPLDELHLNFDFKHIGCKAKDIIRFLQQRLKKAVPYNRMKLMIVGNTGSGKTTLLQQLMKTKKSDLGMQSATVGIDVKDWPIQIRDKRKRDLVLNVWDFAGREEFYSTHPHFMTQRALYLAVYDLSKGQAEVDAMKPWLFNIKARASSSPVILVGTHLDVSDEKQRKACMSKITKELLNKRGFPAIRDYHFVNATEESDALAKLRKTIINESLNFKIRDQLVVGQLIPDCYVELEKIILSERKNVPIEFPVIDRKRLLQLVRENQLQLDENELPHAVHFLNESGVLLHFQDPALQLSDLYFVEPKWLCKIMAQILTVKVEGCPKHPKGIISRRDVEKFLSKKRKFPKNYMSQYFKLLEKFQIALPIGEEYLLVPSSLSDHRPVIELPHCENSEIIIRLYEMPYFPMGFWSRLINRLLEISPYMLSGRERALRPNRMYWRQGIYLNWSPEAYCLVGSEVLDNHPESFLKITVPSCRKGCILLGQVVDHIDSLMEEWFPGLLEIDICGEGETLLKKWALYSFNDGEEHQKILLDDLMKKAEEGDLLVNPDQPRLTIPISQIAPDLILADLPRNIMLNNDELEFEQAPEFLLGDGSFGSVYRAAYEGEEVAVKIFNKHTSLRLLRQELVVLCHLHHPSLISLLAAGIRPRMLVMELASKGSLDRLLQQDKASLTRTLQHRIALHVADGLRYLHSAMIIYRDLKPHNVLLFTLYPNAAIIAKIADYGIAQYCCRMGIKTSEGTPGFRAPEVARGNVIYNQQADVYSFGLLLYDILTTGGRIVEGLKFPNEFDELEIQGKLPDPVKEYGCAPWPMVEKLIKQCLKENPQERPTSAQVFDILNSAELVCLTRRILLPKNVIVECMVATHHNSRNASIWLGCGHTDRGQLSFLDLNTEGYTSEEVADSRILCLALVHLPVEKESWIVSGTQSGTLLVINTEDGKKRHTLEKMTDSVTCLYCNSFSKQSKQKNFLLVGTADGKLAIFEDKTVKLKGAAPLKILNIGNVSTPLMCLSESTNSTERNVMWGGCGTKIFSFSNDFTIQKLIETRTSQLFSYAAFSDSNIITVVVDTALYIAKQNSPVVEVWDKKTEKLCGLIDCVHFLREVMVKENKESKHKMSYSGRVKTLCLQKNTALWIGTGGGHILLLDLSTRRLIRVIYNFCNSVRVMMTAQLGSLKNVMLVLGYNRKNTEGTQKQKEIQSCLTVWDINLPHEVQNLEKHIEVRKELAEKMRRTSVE
LRRK1, sequence (Q38SD2 whole entry): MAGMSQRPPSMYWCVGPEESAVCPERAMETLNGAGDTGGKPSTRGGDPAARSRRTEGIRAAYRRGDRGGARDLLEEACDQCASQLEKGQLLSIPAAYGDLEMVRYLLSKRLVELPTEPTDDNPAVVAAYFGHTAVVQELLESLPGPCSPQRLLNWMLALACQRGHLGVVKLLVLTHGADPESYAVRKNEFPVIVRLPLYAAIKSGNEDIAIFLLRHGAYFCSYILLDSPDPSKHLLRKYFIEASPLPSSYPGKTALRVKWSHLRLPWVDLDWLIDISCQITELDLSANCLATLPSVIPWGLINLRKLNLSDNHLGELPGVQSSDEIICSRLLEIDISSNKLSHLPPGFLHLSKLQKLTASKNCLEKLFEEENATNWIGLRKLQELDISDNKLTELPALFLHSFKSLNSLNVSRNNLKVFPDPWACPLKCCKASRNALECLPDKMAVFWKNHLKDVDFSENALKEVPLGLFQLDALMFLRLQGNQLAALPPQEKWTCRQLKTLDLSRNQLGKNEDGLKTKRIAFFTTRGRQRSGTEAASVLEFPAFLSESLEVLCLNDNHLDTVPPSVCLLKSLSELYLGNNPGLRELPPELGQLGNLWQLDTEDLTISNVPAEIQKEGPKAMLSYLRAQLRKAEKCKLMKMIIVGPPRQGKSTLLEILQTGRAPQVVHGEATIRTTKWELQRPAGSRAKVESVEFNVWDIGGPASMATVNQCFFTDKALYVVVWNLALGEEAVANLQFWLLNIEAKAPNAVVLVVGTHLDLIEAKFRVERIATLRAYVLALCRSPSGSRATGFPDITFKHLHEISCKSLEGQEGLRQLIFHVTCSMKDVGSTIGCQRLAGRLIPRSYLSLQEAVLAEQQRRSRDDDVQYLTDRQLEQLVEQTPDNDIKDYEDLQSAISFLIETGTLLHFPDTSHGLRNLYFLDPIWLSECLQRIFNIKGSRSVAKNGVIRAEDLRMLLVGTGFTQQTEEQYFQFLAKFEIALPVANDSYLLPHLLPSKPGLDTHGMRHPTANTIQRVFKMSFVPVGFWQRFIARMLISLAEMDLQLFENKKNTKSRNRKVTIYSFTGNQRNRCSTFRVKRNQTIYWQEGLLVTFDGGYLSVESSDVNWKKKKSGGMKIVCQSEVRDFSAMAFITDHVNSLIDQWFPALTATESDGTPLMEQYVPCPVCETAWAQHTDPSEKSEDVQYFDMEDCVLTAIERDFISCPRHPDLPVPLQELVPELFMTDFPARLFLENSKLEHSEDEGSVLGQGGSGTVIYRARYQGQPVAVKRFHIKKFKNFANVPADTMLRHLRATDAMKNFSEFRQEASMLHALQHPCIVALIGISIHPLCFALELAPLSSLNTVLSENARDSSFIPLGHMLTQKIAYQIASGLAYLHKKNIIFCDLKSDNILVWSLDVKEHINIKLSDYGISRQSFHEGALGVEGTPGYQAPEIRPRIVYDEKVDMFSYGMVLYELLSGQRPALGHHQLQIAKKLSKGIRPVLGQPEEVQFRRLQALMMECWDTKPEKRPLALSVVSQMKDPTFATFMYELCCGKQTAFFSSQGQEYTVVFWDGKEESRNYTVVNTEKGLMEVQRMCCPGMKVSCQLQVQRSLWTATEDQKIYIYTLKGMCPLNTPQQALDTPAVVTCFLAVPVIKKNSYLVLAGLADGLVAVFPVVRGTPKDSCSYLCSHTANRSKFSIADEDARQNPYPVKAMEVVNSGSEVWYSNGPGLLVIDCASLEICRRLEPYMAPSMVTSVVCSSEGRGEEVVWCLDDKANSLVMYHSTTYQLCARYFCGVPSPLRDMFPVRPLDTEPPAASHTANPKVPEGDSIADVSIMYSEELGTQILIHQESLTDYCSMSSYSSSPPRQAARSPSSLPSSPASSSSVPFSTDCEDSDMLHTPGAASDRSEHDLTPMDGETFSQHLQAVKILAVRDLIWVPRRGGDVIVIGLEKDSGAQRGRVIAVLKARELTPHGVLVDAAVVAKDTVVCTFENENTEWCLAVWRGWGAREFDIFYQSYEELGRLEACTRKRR

Cc1ccc(-n2nc(C(C)(C)C)cc2NC(=O)Nc2cccc(-c3c[nH]c4nc(Cl)nc(N5CCOCC5)c34)c2)cc1 [Compound 30]
pRab7/Rab7/LRRK1 normalized to DMSO, Mean (LRRK1; 250 nM): 0.2801
pRab7/Rab7/LRRK1 normalized to DMSO (LRRK1; 250 nM, listed as RN277): 0.1952 and 0.2204 and 0.4248
pRab7/Rab7/LRRK1 normalized to DMSO, Mean (LRRK1; 500 nM): 0.132
pRab7/Rab7/LRRK1 normalized to DMSO (LRRK1; 500 nM, listed as RN277): 0.134 and 0.06831 and 0.1937
pRab7/Rab7/LRRK1 normalized to DMSO, Mean (LRRK1; 1 μM): 0.07421
pRab7/Rab7/LRRK1 normalized to DMSO (LRRK1; 1 µM, listed as RN277): 0.05675 and 0.07868 and 0.08722
pRab7/Rab7/LRRK1 normalized to DMSO, Mean (LRRK1; 5 μM): 0.02826
pRab7/Rab7/LRRK1 normalized to DMSO (LRRK1; 5 µM, listed as RN277): 0.01168 and 0.03108 and 0.04201
inhibition of LRRK1 kinase activity in cells (LRRK1; 293T cells, Rab7 phosphorylation, listed as RN277): strong inhibitory effect; also recorded: potently inhibited LRRK1 in cells
pS935 LRRK2/LRRK2 normalized to DMSO, Mean ([1]; 250 nM): 0.9168
pS935 LRRK2/LRRK2 normalized to DMSO ([1]; 250 nM): 0.9442 and 0.8289 and 0.9773
pS935 LRRK2/LRRK2 normalized to DMSO, Mean ([1]; 500 nM): 0.8971
pS935 LRRK2/LRRK2 normalized to DMSO ([1]; 500 nM): 0.9489 and 0.8102 and 0.9321
pS935 LRRK2/LRRK2 normalized to DMSO, Mean ([1]; 1 μM): 0.8756
pS935 LRRK2/LRRK2 normalized to DMSO ([1]; 1 μM): 1.005 and 0.7529 and 0.869
pS935 LRRK2/LRRK2 normalized to DMSO, Mean ([1]; 5 μM): 0.9338
pS935 LRRK2/LRRK2 normalized to DMSO ([1]; 5 μM): 0.9369 and 0.9197 and 0.9447
pS935 LRRK2/LRRK2 normalized to DMSO, Mean ([1]; 10 μM): 0.9235
pS935 LRRK2/LRRK2 normalized to DMSO ([1]; 10 μM): 0.9197 and 0.9052 and 0.9455
effect on phosphorylation of LRRK2 S935 ([1]; 293T cells, MLi-2 500 nM): none of the tested type II inhibitors (broad-spectrum kinase inhibitor Ponatinib or our top compounds RN277 and RN341) reduced the phosphorylation level at this site
pRab8/Rab8/LRRK2 normalized to DMSO, Mean (LRRK2; 250 nM, 4 h, 3 replicates): 1.123
pRab8/Rab8/LRRK2 normalized to DMSO (LRRK2; 250 nM, 4 h, individual Western blots, listed as 277): 1.0545 and 1.033 and 1.2826
pRab8/Rab8/LRRK2 normalized to DMSO, Mean (LRRK2; 500 nM, 4 h, 3 replicates): 0.8664
pRab8/Rab8/LRRK2 normalized to DMSO (LRRK2; 500 nM, 4 h, individual Western blots, listed as 277): 0.8279 and 0.7001 and 1.071
pRab8/Rab8/LRRK2 normalized to DMSO, Mean (LRRK2; 1 μM, 4 h, 3 replicates): 0.8611
pRab8/Rab8/LRRK2 normalized to DMSO (LRRK2; 1 μM, 4 h, individual Western blots, listed as 277): 0.8817 and 0.6143 and 1.087
pRab8/Rab8/LRRK2 normalized to DMSO, Mean (LRRK2; 5 μM, 4 h, 3 replicates): 0.2926
pRab8/Rab8/LRRK2 normalized to DMSO (LRRK2; 5 μM, 4 h, individual Western blots, listed as 277): 0.3266 and 0.2385 and 0.3127
pRab8/Rab8/LRRK2 normalized to DMSO, Mean (LRRK2; 10 μM, 4 h, 3 replicates): 0.2543
pRab8/Rab8/LRRK2 normalized to DMSO (LRRK2; 10 μM, 4 h, individual Western blots, listed as 277): 0.2723 and 0.2085 and 0.282
toxicity (LRRK2; 293T cells, any of the concentrations used): Toxicity did not appear to be an issue
effect on phosphorylation of Rab8a in cells (LRRK2; 293T cells, increasing concentrations): reduced phosphorylation of Rab8a in a dose-dependent manner
pRab8/Rab8/LRRK2 normalized to DMSO, Mean (LRRK2; GFP-11 tagged WT LRRK2, 5 μM, 4 replicates): 0.2436
pRab8/Rab8/LRRK2 normalized to DMSO (LRRK2; GFP-11 tagged WT LRRK2, 5 μM, individual blots, normalized to WT DMSO, listed as RN277): 0.1001 and 0.2331 and 0.598 and 0.04303
